Values quoted from earlier work as cited in patent publication US6077934A (priority 1998, dated 2000).

Test system: Swiss Webster mice
Conditions: mouse, in vivo

GCX1 X2 EPWC [contryphan-R]
symptomatology after intracranial injection: "stiff-tail syndrome"
